Results published in US8513232B2, “Substituted spirocyclic piperidine derivatives as histamine-3 (H3) receptor ligands” (Cephalon, Inc., priority 2008, dated 2013).
Where two headings read alike, the source gives them in different places.

Experiments:
human H3 receptor = target: T1, human H3 receptor (Homo sapiens, UniProt Q9Y5N1); assay: Human H3 radioligand binding ([3H]-N-alpha-methylhistamine, SPA)
T1 construct: expressed in transfected cells
Outline: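 SPA competition binding on membranes from CHO cells stably expressing human H3 receptor (10 μg protein/well) with ~1 nM [3H]-N-alpha-methylhistamine and compound at 0.01 nM-30 μM. Incubation 4 h at room temperature in 50 mM Tris-HCl pH 7.4, 5 mM MgCl2, 0.1% BSA; non-specific binding defined with 10 μM clobenpropit.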

[1] = target: T2, rat histamine H3 receptor (Rattus norvegicus, UniProt Q9QYN8); assay: Rat H3 radioligand binding ([3H]-N-alpha-methylhistamine, SPA)
T2 construct: encoding the entire 445-amino-acid rat histamine H3 receptor; expressed in transfected cells; membrane preparation
Outline: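 Membranes from CHO-A3 cells stably expressing full-length rat H3 receptor (10 μg protein/well) incubated 4 h at room temperature, protected from light, with ~1 nM [3H]-N-alpha-methylhistamine and compound (0.01 nM-30 μM) in 50 mM Tris HCl pH 7.4, 5 mM MgCl2, 0.1% BSA. Binding read by SPA; 10 μM clobenpropit defined non-specific binding.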

[2] = Human H3 binding, Table B, Examples 136-362, read-out: hum H3 binding Ki
[3] = Rat H3 binding, Table B, Examples 136-362, read-out: rat H3 binding Ki
[4] = human H3 binding, Table D, read-out: Human H3 Ki
[5] = rat H3 binding, Table D, read-out: Rat H3 Ki
[6] = Table A, human H3 binding, read-out: Human Ki
[7] = Table A, rat H3 binding, read-out: Rat Ki
[8] = Table C, human H3 binding, read-out: Human H3 Ki
[9] = Table C, rat H3 binding, read-out: Rat H3 Ki

T1 sequence (Q9Y5N1 whole entry): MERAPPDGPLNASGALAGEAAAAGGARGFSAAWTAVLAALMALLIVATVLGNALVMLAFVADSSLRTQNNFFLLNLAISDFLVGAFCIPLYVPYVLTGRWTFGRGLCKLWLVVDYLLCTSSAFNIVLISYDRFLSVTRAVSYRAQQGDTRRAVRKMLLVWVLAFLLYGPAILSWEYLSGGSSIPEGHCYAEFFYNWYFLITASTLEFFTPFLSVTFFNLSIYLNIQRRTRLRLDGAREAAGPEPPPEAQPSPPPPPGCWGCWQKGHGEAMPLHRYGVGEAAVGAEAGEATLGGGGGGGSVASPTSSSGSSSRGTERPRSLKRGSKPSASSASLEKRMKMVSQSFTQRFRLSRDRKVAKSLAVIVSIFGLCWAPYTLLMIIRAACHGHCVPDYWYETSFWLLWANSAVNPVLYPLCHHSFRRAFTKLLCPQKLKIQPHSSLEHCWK
T2 sequence (Q9QYN8 whole entry): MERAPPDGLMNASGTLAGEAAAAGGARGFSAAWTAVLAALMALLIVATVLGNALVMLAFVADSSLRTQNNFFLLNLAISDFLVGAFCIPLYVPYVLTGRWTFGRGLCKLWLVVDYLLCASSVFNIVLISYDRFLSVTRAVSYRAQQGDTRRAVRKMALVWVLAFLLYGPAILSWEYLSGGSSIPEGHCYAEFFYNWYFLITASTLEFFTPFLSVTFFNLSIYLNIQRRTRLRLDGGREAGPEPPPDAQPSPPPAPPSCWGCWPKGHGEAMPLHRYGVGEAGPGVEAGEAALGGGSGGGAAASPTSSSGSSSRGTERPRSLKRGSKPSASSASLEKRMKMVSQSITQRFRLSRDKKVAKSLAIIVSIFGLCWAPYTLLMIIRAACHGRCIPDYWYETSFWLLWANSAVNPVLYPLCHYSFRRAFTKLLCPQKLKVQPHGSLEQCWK

SMILES | melting point [°C] | Ki (human H3 receptor; [4]) [nM] | Ki [1, 5] [nM] | other results
CC(=O)N(Cc1cccs1)c1ccc2c(c1)COC1(CCN(C3CCC3)CC1)O2 [Example 348] | 119 to 120 | – | – | Ki (human H3 receptor; [2]): < 200 nM; Ki [1, 3]: < 200 nM
C/C=C(\CC)c1ccc2c(c1)COC1(CCN(C3CCC3)CC1)O2 [Example 677] | 223.5 to 225.8 | < 200 | < 200 | –
[O-][S+]1CCC(c2ccc3c(c2)COC2(CCN(C4CCC4)CC2)O3)CC1 (stereo not drawn) [Example 473] | 187 to 189 | – | – | Ki (human H3 receptor; read-out: Human H3 Ki): < 200 nM; Ki ([1]; read-out: Rat H3 kI): < 200 nM
N#Cc1ccc(Nc2ccc3c(c2)COC2(CCN(C4CCC4)CC2)O3)cc1 [Example 122] | 55 to 60 | – | – | Ki (human H3 receptor; [6]): < 200 nM; Ki [1, 7]: < 200 nM
c1cc2c(cc1C1CCOCC1)COC1(CCN(C3CCC3)CC1)O2 [Example 479] | 249 to 251 | – | – | Ki (human H3 receptor; read-out: Human H3 Ki): < 200 nM; Ki ([1]; read-out: Rat H3 kI): < 200 nM
O=C(NC1CCOCC1)c1cccc(COc2ccc3c(c2)CCC2(CCN(C4CCC4)CC2)O3)c1 [Example 646] | 158 to 160 | < 200 | < 200 | –
c1ccc(OC2CCN(c3ccc4c(c3)CCC3(CCN(C5CCC5)CC3)O4)CC2)nc1 [Example 412] | 240 to 245 | – | – | Ki (human H3 receptor; [8]): < 200 nM; Ki [1, 9]: < 200 nM
O=c1cc(Oc2ccc3c(c2)CCC2(CCN(C4CCC4)CC2)O3)cc[nH]1 [Example 493] | 186 to 188 | – | – | Ki (human H3 receptor; read-out: Human H3 Ki): < 200 nM; Ki ([1]; read-out: Rat H3 kI): < 200 nM
O=c1cc(-c2ccc3c(c2)COC2(CCN(C4CCC4)CC2)O3)ccn1C(F)F [Example 775] | 175 to 177 | < 200 | < 200 | –
c1ccc(N2CCN(c3ccc4c(c3)CCC3(CCN(C5CCC5)CC3)O4)CC2)nc1 [Example 368] | 171 to 172 | – | – | Ki (human H3 receptor; [8]): < 200 nM; Ki [1, 9]: < 200 nM
O=C(Nc1ccc2c(c1)CCC1(CCN(C3CCC3)CC1)O2)c1ccnnc1 [Example 289] | 213 to 215 | – | – | Ki (human H3 receptor; [2]): < 200 nM; Ki [1, 3]: < 200 nM
O=C(OCc1ccccc1)N1CC=C(c2ccc3c(c2)CCC2(CCN(C4CCC4)CC2)O3)CC1 [Example 447] | 237 to 239 | – | – | Ki (human H3 receptor; read-out: Human H3 Ki): < 200 nM; Ki ([1]; read-out: Rat H3 kI): < 200 nM
O=c1cc(-c2ccc3c(c2)COC2(CCN(C4CCC4)CC2)O3)c(F)c[nH]1 [Example 766] | 254 to 255 | < 200 | < 200 | –
CS(=O)(=O)N1CCC(COc2ccc3c(c2)CCC2(CCN(C4CCC4)CC2)O3)CC1 [Example 335] | 159 to 161 | – | – | Ki (human H3 receptor; [2]): < 200 nM; Ki [1, 3]: < 200 nM
O=c1ccc(-c2ccc3c(c2)COC2(CCN(C4CCC4)CC2)O3)cn1CC(F)F [Example 555] | 65 to 70 | – | – | Ki (human H3 receptor; read-out: Human H3 Ki): < 200 nM; Ki ([1]; read-out: Rat H3 kI): < 200 nM
CNC(=O)c1cc(-c2ccc3c(c2)COC2(CCN(C4CCC4)CC2)O3)ccc1Cl [Example 584] | 198 to 200 | < 200 | < 200 | –
c1ncc(COc2ccc3c(c2)CCC2(CCN(C4CCC4)CC2)O3)o1 [Example 325] | 45 to 47 | – | – | Ki (human H3 receptor; [2]): < 200 nM; Ki [1, 3]: < 200 nM
O=C(NC1CCOCC1)c1ccc(-c2ccc3c(c2)COC2(CCN(C4CCC4)CC2)O3)cc1 [Example 362] | 216 to 218 | – | – | Ki (human H3 receptor; [2]): < 200 nM; Ki [1, 3]: < 200 nM
CCOC1CCN(c2ccc3c(c2)COC2(CCN(C4CCC4)CC2)O3)CC1 [Example 431] | 266 to 269 | – | – | Ki (human H3 receptor; [8]): < 200 nM; Ki [1, 9]: < 200 nM
O=c1cc(-c2ccc3c(c2)COC2(CCN(C4CCC4)CC2)O3)c(Cl)cn1CC(F)(F)F [Example 781] | 194 to 197 | < 200 | < 200 | –
c1cnc(Nc2ccc3c(c2)COC2(CCN(C4CCC4)CC2)O3)nc1 [Example 127] | 55 to 58 | – | – | Ki (human H3 receptor; [6]): < 200 nM; Ki [1, 7]: < 200 nM
O=c1cc(COc2ccc3c(c2)CCC2(CCN(C4CCC4)CC2)O3)cc[nH]1 [Example 663] | 205 to 206 | < 200 | < 200 | –
CS(=O)(=O)c1ccc(N2CCN(c3ccc4c(c3)CCC3(CCN(C5CCC5)CC3)O4)CC2)nc1 [Example 383] | 258 to 260 | – | – | Ki (human H3 receptor; [8]): < 200 nM; Ki [1, 9]: < 200 nM
CCC(=O)N1CCN(c2ccc3c(c2)COC2(CCN(C4CCC4)CC2)O3)C(=O)C1 [Example 739] | 146 to 148 | < 200 | < 200 | –
C1=C(c2ccc3c(c2)COC2(CCN(C4CCC4)CC2)O3)CCSC1 [Example 466] | 162 to 163 | – | – | Ki (human H3 receptor; read-out: Human H3 Ki): < 200 nM; Ki ([1]; read-out: Rat H3 kI): < 200 nM

SMILES | melting point [°C] | Ki (human H3 receptor; [4]) [nM] | Ki [1, 5] [nM] | other results
O=C(c1ccc(-c2ccc3c(c2)COC2(CCN(C4CCC4)CC2)O3)cc1)N1CCC(O)CC1 [Example 258] | 100.4 to 102.2 | – | – | Ki (human H3 receptor; [2]): < 200 nM; Ki [1, 3]: < 200 nM
NC(=O)c1ccc(Oc2ccc3c(c2)CCC2(CCN(C4CCC4)CC2)O3)nc1 [Example 390] | 191 to 193 | – | – | Ki (human H3 receptor; [8]): < 200 nM; Ki [1, 9]: < 200 nM
Cc1noc(COc2ccc3c(c2)CCC2(CCN(C4CCC4)CC2)O3)n1 [Example 616] | 95 to 96 | < 200 | < 200 | –
O=C(Nc1ccc2c(c1)COC1(CCN(C3CCC3)CC1)O2)c1ccc2nccn2c1 [Example 345] | 254 to 255 | – | – | Ki (human H3 receptor; [2]): < 200 nM; Ki [1, 3]: < 200 nM
CN(C)C(=O)C1CC(N2CCC3(CC2)OCc2cc(-c4ccc(=O)[nH]c4)ccc2O3)C1 (stereo not drawn) [Example 735] | 247 to 249 | > 1000 | > 1000 | –
CCNC(=O)N1CCN(c2ccc3c(n2)COC2(CCN(C4CCC4)CC2)O3)CC1 [Example 254] | 122 to 124 | – | – | Ki (human H3 receptor; [2]): < 200 nM; Ki [1, 3]: < 200 nM
Cn1cc(-c2ccc3c(c2)COC2(CCN(C4CCC4)CC2)O3)cnc1=O [Example 680] | 230 to 231 | < 200 | < 200 | –
O=S(=O)(c1ccccc1)C1CCN(c2ccc3c(c2)COC2(CCN(C4CCC4)CC2)O3)CC1 [Example 583] | 78.4 to 80.2 | < 200 | < 200 | –
O=C(C1CC1)N1CCC(Oc2ccc3c(c2)CCC2(CCN(C4CCC4)CC2)O3)CC1 [Example 435] | 243 to 245 | – | – | Ki (human H3 receptor; [8]): < 200 nM; Ki [1, 9]: < 200 nM
CS(=O)(=O)c1cncc(-c2ccc3c(c2)COC2(CCN(C4CCC4)CC2)O3)c1 [Example 655] | 148 to 149 | < 200 | < 200 | –
COCCNC(=O)N1CCN(c2ccc3c(c2)COC2(CCN(C4CCC4)CC2)O3)CC1 [Example 275] | 66.8 to 68.4 | – | – | Ki (human H3 receptor; [2]): < 200 nM; Ki [1, 3]: < 200 nM
c1cc2c(cc1N1CCC(N3CCOCC3)CC1)COC1(CCN(C3CCC3)CC1)O2 [Example 298] | 142.4 to 144.3 | – | – | Ki (human H3 receptor; [2]): < 200 nM; Ki [1, 3]: < 200 nM
CCc1nc(OC)ccc1-c1ccc2c(c1)COC1(CCN(C3CCC3)CC1)O2 [Example 789] | 59 to 61 | < 200 | < 200 | –
CNC(=O)c1cc(-c2ccc3c(c2)COC2(CCN(C4CCC4)CC2)O3)cs1 [Example 607] | 186 to 188 | < 200 | < 200 | –
CCOc1ccc(-c2ccc3c(c2)OC2(CCN(C4CCC4)CC2)OC3)cn1 [Example 95] | 54 | – | – | Ki (human H3 receptor; [6]): > 1000 nM; Ki [1, 7]: > 1000 nM
CNC(=O)c1ccc(OC2CCN(c3ccc4c(c3)CCC3(CCN(C5CCC5)CC3)O4)CC2)nc1 [Example 439] | 214 to 216 | – | – | Ki (human H3 receptor; [8]): < 200 nM; Ki [1, 9]: < 200 nM
CNC(=O)c1ccc(-c2cc3c(cc2Cl)OC2(CCN(C4CCC4)CC2)OC3)cc1F [Example 272] | 70 to 72 | – | – | Ki (human H3 receptor; [2]): < 200 nM; Ki [1, 3]: < 200 nM
c1cc(-c2ccc3c(c2)COC2(CCN(C4CCC4)CC2)O3)[nH]n1 [Example 730] | 140 to 141 | < 200 | < 200 | –
N#Cc1ccccc1Nc1ccc2c(c1)COC1(CCN(C3CCC3)CC1)O2 [Example 125] | 54 to 58 | – | – | Ki (human H3 receptor; [6]): < 200 nM; Ki [1, 7]: < 200 nM
FC1(F)CCN(c2ccc3c(c2)COC2(CCN(C4CCC4)CC2)O3)C1 [Example 423] | 217 to 221 | – | – | Ki (human H3 receptor; [8]): < 200 nM; Ki [1, 9]: < 200 nM
O=c1ccc(-c2ccc3c(c2)COC2(CCN(C4COC4)CC2)O3)c[nH]1 [Example 718] | 262 to 264 | > 1000 | > 1000 | –
CCOC(=O)C1CC=C(c2ccc3c(c2)COC2(CCN(C4CCC4)CC2)O3)CC1 (stereo not drawn) [Example 487] | 263 to 265 | – | – | Ki (human H3 receptor; read-out: Human H3 Ki): < 200 nM; Ki ([1]; read-out: Rat H3 kI): < 200 nM
COc1cc(C)c(-c2ccc3c(c2)COC2(CCN(C4CCC4)CC2)O3)c(C)n1 [Example 795] | 149.8 to 150.4 | < 200 | < 200 | –
COc1cc(-c2ccc3c(c2)COC2(CCN(C4CCC4)CC2)O3)ccc1C(=O)O [Example 624] | 173 to 175 | < 200 | 200 to 1000 | –
